What was measured:
Format in all cases: cell-based, human
[1] = tested on: DLD-1 (colorectal adenocarcinoma); assay: Cytotoxicity/growth inhibition assay, DLD-1; details: DLD-1 cells, 4 days culture, CellTiter-Glo, 0.1-200 μM tested; read-out: IC50 (DLD-1)
Outline: (§1)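 Test compounds in DMSO (0.1–200 μM; final DMSO 0.5%) added to freshly diluted cells (3×10^3 cells/mL MX-1 and DLD-1, 6×10^3 cells/mL LNCap), triplicate wells. Cultured ~three doubling times (3 days MX-1, 4 days DLD-1/LNCap). CellTiter-Glo luminescence, 15 min room temperature; growth expressed as % of DMSO solvent control.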

[2] = tested on: MX-1 (breast carcinoma); assay: Cytotoxicity/growth inhibition assay, MX-1; details: MX-1 cells, 3 days culture, CellTiter-Glo, 0.1-200 μM tested; read-out: IC50 (MX-1)
Outline: as §1

[3] = tested on: LNCap (prostate carcinoma); assay: Cytotoxicity/growth inhibition assay, LNCap; details: LNCap cells, 4 days culture, CellTiter-Glo, 0.1-200 μM tested; read-out: IC50 (LNCap)
Outline: as §1

O=P(OCCS(=O)(=O)c1ccccc1Cl)(N(CCCl)CCCl)N(CCCl)CCCl [Compound 106A]
IC50 [1]: 3.7 µM
IC50 [2]: 4.2 µM
IC50 [3]: 18.3 µM

O=P(OCCS(=O)(=O)c1ccc(C(F)(F)F)cc1)(N(CCCl)CCCl)N(CCCl)CCCl [Compound 109A]
IC50 [1]: 0.6 µM
IC50 [2]: 1.1 µM
IC50 [3]: 7.7 µM

O=P(OCCS(=O)(=O)CCCCCCCCS(=O)(=O)CCOP(=O)(N(CCCl)CCCl)N(CCCl)CCCl)(N(CCCl)CCCl)N(CCCl)CCCl [Compound 7B]
IC50 [1]: 1.5 µM
IC50 [2]: 1.9 µM
IC50 [3]: 9.5 µM

O=C(c1ccc(CS(=O)(=O)CCOP(=O)(N(CCCl)CCCl)N(CCCl)CCCl)cc1)N1CCC(O)CC1 [Compound 166A]
IC50 [1]: 6.3 µM
IC50 [2]: 20.5 µM
IC50 [3]: 90.2 µM

O=P(OCCS(=O)(=O)Cc1ccccn1)(N(CCCl)CCCl)N(CCCl)CCCl [Compound 181A]
IC50 [1]: 7.4 µM
IC50 [2]: 8.4 µM
IC50 [3]: 26.4 µM

N[C@@H](CS(=O)(=O)CCOP(=O)(N(CCCl)CCCl)N(CCCl)CCCl)C(=O)OCc1ccccc1 [Compound 82A]
IC50 [1]: 7.7 µM
IC50 [2]: 27.9 µM
IC50 [3]: 59.8 µM

CC(C)(C)OC(=O)CNC(=O)CS(=O)(=O)CCOP(=O)(N(CCCl)CCCl)N(CCCl)CCCl [Compound 38A]
IC50 [1]: 7.6 µM
IC50 [2]: 8 µM
IC50 [3]: 23.3 µM

CC(C)(C)OC(=O)N[C@@H](CS(=O)(=O)CCOP(=O)(N(CCCl)CCCl)N(CCCl)CCCl)C(=O)NCCO [Compound 86A]
IC50 [1]: 10.3 µM
IC50 [2]: 25.1 µM
IC50 [3]: 73.5 µM

O=P(OCCS(=O)(=O)Cc1ccc(Cl)cc1)(N(CCCl)CCCl)N(CCCl)CCCl [Compound 131A]
IC50 [1]: 3.6 µM
IC50 [2]: 5.2 µM
IC50 [3]: 6.9 µM

N[C@@H](CS(=O)(=O)CCOP(=O)(N(CCCl)CCCl)N(CCCl)CCCl)C(=O)N1CCOCC1 [Compound 87A]
IC50 [1]: 9.7 µM
IC50 [2]: 19.5 µM
IC50 [3]: 136 µM

CC(C)(C)OC(=O)[C@@H](Cc1ccccc1)NC(=O)CS(=O)(=O)CCOP(=O)(N(CCCl)CCCl)N(CCCl)CCCl [Compound 25A]
IC50 [1]: 3.7 µM
IC50 [2]: 5.6 µM
IC50 [3]: 18.9 µM

O=P(OCCS(=O)(=O)Cc1ccc(F)cc1)(N(CCCl)CCCl)N(CCCl)CCCl [Compound 132A]
IC50 [1]: 5 µM
IC50 [2]: 6.1 µM
IC50 [3]: 16.3 µM

O=C(CS(=O)(=O)CCOP(=O)(N(CCCl)CCCl)N(CCCl)CCCl)Nc1ccc([N+](=O)[O-])c(C(F)(F)F)c1 [Compound 21A]
IC50 [1]: 2.8 µM
IC50 [2]: 4.2 µM
IC50 [3]: 6.3 µM

O=C(O)[C@H](CS(=O)(=O)CCOP(=O)(N(CCCl)CCCl)N(CCCl)CCCl)NS(=O)(=O)c1ccccc1 [Compound 103A]
IC50 [1]: 14.5 µM
IC50 [2]: 18.2 µM
IC50 [3]: 151 µM

O=P(OCCS(=O)(=O)Cc1ccc(Cl)c(Cl)c1)(N(CCCl)CCCl)N(CCCl)CCCl [Compound 134A]
IC50 [1]: 1.2 µM
IC50 [2]: 1.5 µM
IC50 [3]: 4.8 µM

N[C@@H](CCS(=O)(=O)CCOP(=O)(N(CCCl)CCCl)N(CCCl)CCCl)C(=O)O [Compound 77A]
IC50 [1]: 8 µM
IC50 [2]: 21.3 µM
IC50 [3]: 140 µM

O=C(c1ccc(CS(=O)(=O)CCOP(=O)(N(CCCl)CCCl)N(CCCl)CCCl)cc1)N(CCO)CCO [Compound 169A]
IC50 [1]: 7.6 µM
IC50 [2]: 34.5 µM
IC50 [3]: 144 µM

COC(=O)c1ccc(CS(=O)(=O)CCOP(=O)(N(CCCl)CCCl)N(CCCl)CCCl)cc1 [Compound 140A]
IC50 [1]: 5.9 µM
IC50 [2]: 11.9 µM
IC50 [3]: 23.3 µM

N[C@@H](CCC(=O)Nc1cccc(CS(=O)(=O)CCOP(=O)(N(CCCl)CCCl)N(CCCl)CCCl)c1)C(=O)O [Compound 147A]
IC50 [1]: 11.1 µM
IC50 [2]: 12.2 µM
IC50 [3]: 63.9 µM

COc1ccc(S(=O)(=O)CCOP(=O)(N(CCCl)CCCl)N(CCCl)CCCl)cc1 [Compound 115A]
IC50 [1]: 4.1 µM
IC50 [2]: 5.3 µM
IC50 [3]: 18.5 µM

N#CCNC(=O)c1ccc(CS(=O)(=O)CCOP(=O)(N(CCCl)CCCl)N(CCCl)CCCl)cc1 [Compound 164A]
IC50 [1]: 5.8 µM
IC50 [2]: 10.7 µM
IC50 [3]: 45.9 µM

Cc1cccc(S(=O)(=O)CCOP(=O)(N(CCCl)CCCl)N(CCCl)CCCl)c1 [Compound 110A]
IC50 [1]: 1.3 µM
IC50 [2]: 2.7 µM
IC50 [3]: 20.5 µM

N#Cc1ccc(CS(=O)(=O)CCOP(=O)(N(CCCl)CCCl)N(CCCl)CCCl)cc1 [Compound 153A]
IC50 [1]: 1.8 µM
IC50 [2]: 3 µM
IC50 [3]: 6.9 µM

O=C(NCCCN1CCOCC1)c1ccc(CS(=O)(=O)CCOP(=O)(N(CCCl)CCCl)N(CCCl)CCCl)cc1 [Compound 175A]
IC50 [1]: 10.9 µM
IC50 [2]: 18.2 µM
IC50 [3]: 65.1 µM

Source: US8093231B2, “Sulfonylethyl phosphorodiamidates” (Telik, Inc., priority 2004, dated 2012)
